# Source: article PMC6825211 (Nature Communications, 2019)
# System: INS-1E cells
# Test: Western blot of pMST1, caspase-3/PARP cleavage, PDX1, BIM under diabetogenic conditions
# Format: cell-based, rat
# Experimental: . pThr183), caspase-3 and PARP cleavage, PDX1, tubulin, and actin were analyzed by western blotting. Representative Western blots and pooled quantitative densitometry analysis are shown from three independent cell line experiments (n = 3). […]; all by Student’s t tests.
# . pThr183), caspase-3 and PARP cleavage, and BIM and actin were analyzed by western blotting. Representative Western blots (b) and pooled quantitative densitometry analysis (c) are shown from 3–6 independent culture dishes (n = 3–6). […]; all by Student’s t tests.
# Human islets were isolated from eight pancreases of nondiabetic organ donors at PRODO Labs and at Lille University and cultured on extracellular matrix-coated dishes (Novamed, Jerusalem, Israel)[62] or on Biocoat Collagen I coated dishes (#356400, Corning, ME, USA). […] The clonal rat β-cell line INS-1E was kindly provided by Dr. Claes Wollheim, Geneva & Lund University. Human islets were cultured in complete CMRL-1066 (Invitrogen) medium at 5.5 mM glucose, mouse islets and INS-1E cells at complete RPMI-1640 medium at 11.1 mM glucose. […] . Palmitic acid (Sigma) was dissolved at 10 mmol/l in RPMI-1640 medium containing 11% fatty acid–free bovine serum albumin (BSA) (Sigma) under an N2-atmosphere and added to the culture at 0.5 mM[64]. […] . Isolated human islets or INS-1E cells were infected with adenovirus carrying LacZ as control or MST1 or LATS2 (all Vector Biolabs), at a multiplicity of infection of 100 (human islets) or 20 (INS-1E) for 4 h[11]. Adenovirus was subsequently washed off with PBS and replaced by fresh medium with 10% FBS and the respective analysis performed after 48 h post infection.
smiles,measurement,setting,value
CCOc1cc2ncc(C#N)c(Nc3ccc(OCc4ccccn4)c(Cl)c3)c2cc1NC(=O)/C=C/CN(C)C [neratinib],PDX1 expression reduced by elevated glucose,"22.2 mM glucose, 72 h",restored PDX1 expression
same,H2O2- and high glucose/palmitate-induced MST1 activation and apoptosis (caspase-3 and PARP cleavage),72 h,potently inhibited
same,mitochondrial BIM induction under diabetic conditions,"HG/Pal, 10 μM, 24 h",significantly reduced
same,stress-induced MST1 activation and caspase-3 and PARP cleavage,"HG/Pal, 10 μM, 24 h",strongly counteracted
